Source: ChEMBL document CHEMBL4725268, “Anticonvulsant and analgesic in neuropathic pain activity in a group of new aminoalkanol derivatives” (Bioorg Med Chem Lett, 2020)
The source made the active and inactive calls. No cut-off for these calls is given here.

Experiments:
Mus musculus [1] = species: Mus musculus; assay: animal or person; settings: Swiss, ip
Description: Anticonvulsant activity in ip dosed Swiss mouse assessed as protection against current-induced seizure by maximal electroshock seizure test

Mus musculus [2] = assay: Anticonvulsant activity in ip dosed albino mouse assessed as protection against 50 mA current-induced seizure by maximal electroshock seizure test; type: functional
[3] = Genotoxicity in Salmonella typhimurium TA98 assessed as number of revertant at 2.5 ug by AMES test (reference value: 8 to 8.3); type: toxicity, Salmonella enterica subsp. enterica serovar Typhimurium; settings: in vivo; dose 2.5 µg
[4] = Genotoxicity in Salmonella typhimurium TA98 assessed as mutagenic index at 2.5 ug by AMES test; type: toxicity, Salmonella enterica subsp. enterica serovar Typhimurium; settings: in vivo; dose 2.5 µg
[5] = Genotoxicity in Salmonella typhimurium TA98 assessed as number of revertant at 10 ug by AMES test (reference value: 8 to 8.3); type: toxicity, Salmonella enterica subsp. enterica serovar Typhimurium; settings: in vivo; dose 10 µg
[6] = Toxicity in ip dosed mouse assessed as motor impairment by rotarod test; type: organism-based; settings: in vivo
[7] = Protection index, ratio of TD50 for toxicity in ip dosed mouse to ED50 for anticonvulsant activity in ip dosed mouse; type: organism-based; settings: in vivo, read-out: PI
[8] = Genotoxicity in Salmonella typhimurium TA98 assessed as mutagenic index at 75 ug by AMES test; type: toxicity, Salmonella enterica subsp. enterica serovar Typhimurium; settings: in vivo; dose 75 µg
[9] = Genotoxicity in Salmonella typhimurium TA100 assessed as mutagenic index at 75 ug by AMES test; type: toxicity, Salmonella enterica subsp. enterica serovar Typhimurium; settings: in vivo; dose 75 µg
in vitro [10] = settings: mouse, microsomes
Description: Metabolic stability in mouse microsome assessed as intrinsic clearance

[11] = Genotoxicity in Salmonella typhimurium TA100 assessed as number of revertant at 500 ug by AMES test (reference value: 64.3 to 130.7); type: toxicity, Salmonella enterica subsp. enterica serovar Typhimurium; settings: in vivo; dose 500 µg
[12] = Genotoxicity in Salmonella typhimurium TA100 assessed as number of revertant at 75 ug by AMES test (reference value: 64.3 to 130.7); type: toxicity, Salmonella enterica subsp. enterica serovar Typhimurium; settings: in vivo; dose 75 µg
in vitro [13] = settings: mouse, microsomes; remark: listed apart in the source
Description: Metabolic stability in mouse microsome assessed as half life

[14] = Genotoxicity in Salmonella typhimurium TA100 assessed as mutagenic index at 10 ug by AMES test; type: toxicity, Salmonella enterica subsp. enterica serovar Typhimurium; settings: in vivo; dose 10 µg
[15] = Genotoxicity in Salmonella typhimurium TA100 assessed as mutagenic index at 200 ug by AMES test; type: toxicity, Salmonella enterica subsp. enterica serovar Typhimurium; settings: in vivo; dose 200 µg
[16] = Genotoxicity in Salmonella typhimurium TA98 assessed as mutagenic index at 750 ug by AMES test; type: toxicity, Salmonella enterica subsp. enterica serovar Typhimurium; settings: in vivo; dose 750 µg
[17] = Genotoxicity in Salmonella typhimurium TA98 assessed as number of revertant at 500 ug by AMES test (reference value: 8 to 8.3); type: toxicity, Salmonella enterica subsp. enterica serovar Typhimurium; settings: in vivo; dose 500 µg
[18] = Genotoxicity in Salmonella typhimurium TA98 assessed as number of revertant at 750 ug by AMES test (reference value: 8 to 8.3); type: toxicity, Salmonella enterica subsp. enterica serovar Typhimurium; settings: in vivo; dose 750 µg
[19] = Genotoxicity in Salmonella typhimurium TA100 assessed as number of revertant at 200 ug by AMES test (reference value: 64.3 to 130.7); type: toxicity, Salmonella enterica subsp. enterica serovar Typhimurium; settings: in vivo; dose 200 µg
[20] = Drug metabolism in mouse microsome assessed as formation of monohydroxylated metabolite; type: ADME; settings: microsomes
[21] = Genotoxicity in Salmonella typhimurium TA98 assessed as mutagenic index at 200 ug by AMES test; type: toxicity, Salmonella enterica subsp. enterica serovar Typhimurium; settings: in vivo; dose 200 µg
[22] = biological target: T1, 5-hydroxytryptamine receptor 1A (Homo sapiens) (UniProt P08908); assay: Binding affinity to 5-HT1A (unknown origin) at 10^-5 M; settings: dose 1.0 10^-5M
T1 sequence (whole entry): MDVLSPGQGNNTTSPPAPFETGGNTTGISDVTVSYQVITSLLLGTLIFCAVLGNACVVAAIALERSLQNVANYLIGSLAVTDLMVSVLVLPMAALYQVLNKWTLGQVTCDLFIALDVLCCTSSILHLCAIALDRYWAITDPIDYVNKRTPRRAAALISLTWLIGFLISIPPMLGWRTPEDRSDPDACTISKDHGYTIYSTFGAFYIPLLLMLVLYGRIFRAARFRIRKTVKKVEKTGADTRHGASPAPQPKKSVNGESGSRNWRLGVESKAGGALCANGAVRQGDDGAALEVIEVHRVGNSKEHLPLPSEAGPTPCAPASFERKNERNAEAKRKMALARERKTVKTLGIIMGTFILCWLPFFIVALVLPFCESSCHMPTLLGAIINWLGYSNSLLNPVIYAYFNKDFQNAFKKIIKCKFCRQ

[23] = Genotoxicity in Salmonella typhimurium TA100 assessed as number of revertant at 10 ug by AMES test (reference value: 64.3 to 130.7); type: toxicity, Salmonella enterica subsp. enterica serovar Typhimurium; settings: in vivo; dose 10 µg
[24] = Toxicity in mouse assessed as lethality at 50 mg/kg, ip; type: organism-based; settings: in vivo
Mus musculus [25] = assay: Anticonvulsant activity in ip dosed mouse assessed as protection against current-induced seizure by maximal electroshock seizure test; type: functional
[26] = Genotoxicity in Salmonella typhimurium TA98 assessed as mutagenic index at 500 ug by AMES test; type: toxicity, Salmonella enterica subsp. enterica serovar Typhimurium; settings: in vivo; dose 500 µg
[27] = Genotoxicity in Salmonella typhimurium TA98 assessed as mutagenic index at 10 ug by AMES test; type: toxicity, Salmonella enterica subsp. enterica serovar Typhimurium; settings: in vivo; dose 10 µg
[28] = Genotoxicity in Salmonella typhimurium TA100 assessed as mutagenic index at 500 ug by AMES test; type: toxicity, Salmonella enterica subsp. enterica serovar Typhimurium; settings: in vivo; dose 500 µg
[29] = Genotoxicity in Salmonella typhimurium TA98 assessed as number of revertant at 75 ug by AMES test (reference value: 8 to 8.3); type: toxicity, Salmonella enterica subsp. enterica serovar Typhimurium; settings: in vivo; dose 75 µg
[30] = Genotoxicity in Salmonella typhimurium TA98 assessed as number of revertant at 200 ug by AMES test (reference value: 8 to 8.3); type: toxicity, Salmonella enterica subsp. enterica serovar Typhimurium; settings: in vivo; dose 200 µg
[31] = Genotoxicity in Salmonella typhimurium TA100 assessed as mutagenic index at 750 ug by AMES test; type: toxicity, Salmonella enterica subsp. enterica serovar Typhimurium; settings: in vivo; dose 750 µg
[32] = Genotoxicity in Salmonella typhimurium TA100 assessed as number of revertant at 750 ug by AMES test (reference value: 64.3 to 130.7); type: toxicity, Salmonella enterica subsp. enterica serovar Typhimurium; settings: in vivo; dose 750 µg

With `Cc1cccc(C)c1OCC(C)N` (racemic) [MEXILETINE] the ED50 (Mus musculus [1]) was 11.9 mg/kg and the ED50 (Mus musculus [2]) was 1.2 mg/kg.

`Nc1ccc([N+](=O)[O-])cc1N` gave an Activity [3] of 519 and an Activity_index [4] of 62.3.

With `Cc1ccc(OCCCN2CCCC(O)C2)c(C)c1` (racemic) the Activity [5] was 6.3, the TD50 [6] was 108 mg/kg and the selectivity ratio [7] was 3.09. The Activity_index [8] was 0.8, the Activity_index [9] was 1 and the microsomal CLint (in vitro [10]) was 60.5 µL/min/mg. The Activity [11] was 81, the Activity [12] was 69.5 and the half-life (in vitro [13]) was 28.6 min. It also gave an Activity_index [14] of 1.2, an Activity_index [15] of 1.2 and an Activity_index [16] of 1. The Activity [17] was 4.7, the Activity [18] was 3.3 and the Activity [19] was 88.5. The Drug metabolism [20] was “Metabolite_Detected”, the Activity_index [21] was 1.2 and the Activity [22] was “inactive”. For the same molecule, the Activity [23] was 89.5, the Activity [24] was “Non-Toxic” and the ED50 (Mus musculus [25]) was 34.8 mg/kg. For the same molecule, the Activity_index [26] was 1, the Activity_index [27] was 0.4 and the Activity_index [28] was 1.1. The Activity [29] was 8, the Activity [30] was 6.7 and the Activity_index [31] was 53.4. The Activity [32] was 3869.5.
